The target of one experiment is T1, Kit (Mus musculus, UniProt P05532).
T1 construct: specificity data for proteins generated from a library of eighteen full-length clones; biotin on random lysines (biotin-Lys-tRNA); host or cells: rabbit reticulocyte lysate, coupled transcription/translation (TnT, Promega)
The experiment in a line: Kinase inhibitor profiling, pEY phosphorylation. It is filed as biochemical. Here is the method:
(§1) Proteins were produced in an in vitro transcription and translation reaction. […] The unbound components of the reaction containing endogenous kinases were removed by three washes with TT-buffer (25 mM Tris-HCl buffer pH 7.4 and 0.004% Triton), two five minutes washings with high-salt wash buffer (25 mM Tris-HCl buffer pH 7.4, 0.004% Triton, 1M NaCl and 5 mM DTT) and 3 more washes with TT-buffer. To these immobilized and purified proteins a tyrosine kinase substrate, 5 nM pEY (poly Glu-Tyr, Sigma, MO), was added in a 50 μl reaction solution containing 5 mM MgCl2, 5 mM MnCl2, 100 μM ATP, 25 mM Tris-HCl buffer pH 7.4, 0.05 mM Na3VO4, 0.004% TritonX-100, 2 mM DTT and EDTA-free protease inhibitor (Roche Molecular Biochemicals). This mixture was incubated with shaking at room temperature overnight to allow phosphorylation of the pEY substrate by the immobilized kinases. Following this incubation, 45 μl of this mixture was transferred to a streptavidin or avidin-coated NPT IPR plate coated with biotinylated anti-phosphotyrosine antibody (PY20, Zymed labs, CA) followed by incubation for 30 minutes at room temperature to allow the binding of the phosphorylated pEY substrate to the PY20 coated NPT plate. Following this binding step, 50 ng Sulfo-TAG labeled anti-phosphotyrosine in buffer containing 25 mM Tris-HCl buffer pH 7.4, 5 mM MgCl2, 0.05 mM Na3VO4, 0.004% TritonX-100, 2 mM DTT and 0.05% IgG was added followed by incubation at room temperature for 30 mm. The unbound reagents were removed by one time washing with water, and the TAG label was detected in presence of 150 μl IPR assay buffer (0.4 mM Gly-Gly buffer, pH 7.8, 1 mM EDTA, 0.1 M TPA). The ECL signals were measured using an imaging plate reader.
(§2) Proteins were produced using 100 ng of plasmid DNA Mock (Luciferase, Promega) or tyrosine kinases (Fert2 IMAGE ID # 4485050, FGFR1 IMAGE ID # 4037899, Fgfr2 IMAGE ID # 2654352, Src IMAGE ID # 3156400, BMX IMAGE ID # 3919253, LCK IMAGE ID # 4191610, Epha7 IMAGE ID # 3991628, Ephb4 IMAGE ID # 4013934, Tek IMAGE ID # 3482498, HCK IMAGE ID # 4778819, BTK IMAGE ID # 4478463, CSK IMAGE ID # 4398416, SYK IMAGE ID # 3870426, FGR IMAGE ID # 4419973, PTK2B IMAGE ID # 4339456, FRK(IMAGE ID # 4515877, Kit IMAGE ID # 2644960, Fgfr-4 IMAGE ID # 4239139, NTRK3 IMAGE ID # 4181574, Kdr IMAGE ID # 4238984, Incyte Genomics, CA) and immobilized on SA or avidin coated NPT-IPR plates as described in previous examples. The unbound components of the translation reaction (including any endogenous kinases) were removed by 3 washes with TT-buffer (25 mM Tris-HCl buffer pH 7.4 and 0.004% Triton), two five minutes washes with high-salt wash buffer (25 mM Tris-HCl buffer pH 7.4, 0.004% Triton, 1M NaCl and 5 mM DTT) and 3 washes with TT-buffer. […] The mixture was incubated at room temperature for 10 mm before starting the kinase reaction by adding 25 μl of 200 μM ATP in buffer A. This mixture was incubated with intermittent shaking at room temperature for 2 hours to overnight to allow (a) phosphorylation of the pEY substrate and (b) autophosphorylation of the immobilized kinases. Autophosphorylation and phosphorylation of the pEY was measured as described in Examples 7 and 8.
(§3) The ECL signal in control wells produced by tyrosine kinases was compared to the wells containing inhibitor compounds. The signal produced from Mock was negligible.

The subject of experiment [1] is tyrosine kinases reported to be the target of each inhibitor. The settings on record: read-out: reported IC50 concentration (1× concentration); for the kinase reported to be the target of the inhibitor; cited from earlier work.
A further experiment concerns the target T2, BTK (Homo sapiens, UniProt Q06187).
T2 construct: specificity data for proteins generated from a library of eighteen full-length clones; host or cells: rabbit reticulocyte lysate, TnT coupled in vitro transcription/translation (cell-free)
The experiment in a line: Kinase inhibitor profiling, pEY phosphorylation. In kind it is biochemical. How it is done: as §1
(§4) The unbound components of the translation reaction (including any endogenous kinases) were removed by 3 washes with TT-buffer (25 mM Tris-HCl buffer pH 7.4 and 0.004% Triton), two five minutes washes with high-salt wash buffer (25 mM Tris-HCl buffer pH 7.4, 0.004% Triton, 1M NaCl and 5 mM DTT) and 3 washes with TT-buffer. […] The mixture was incubated at room temperature for 10 mm before starting the kinase reaction by adding 25 μl of 200 μM ATP in buffer A. This mixture was incubated with intermittent shaking at room temperature for 2 hours to overnight to allow (a) phosphorylation of the pEY substrate and (b) autophosphorylation of the immobilized kinases. Autophosphorylation and phosphorylation of the pEY was measured as described in Examples 7 and 8.
(§5) The ECL signal in control wells produced by tyrosine kinases was compared to the wells containing inhibitor compounds.

The next experiment concerns the target T3, EphB4 (Mus musculus, UniProt P54761).
T3 construct: specificity data for proteins generated from a library of eighteen full-length clones; host or cells: rabbit reticulocyte lysate, TnT coupled in vitro transcription/translation (cell-free)
T3 sequence (P54761 16-987): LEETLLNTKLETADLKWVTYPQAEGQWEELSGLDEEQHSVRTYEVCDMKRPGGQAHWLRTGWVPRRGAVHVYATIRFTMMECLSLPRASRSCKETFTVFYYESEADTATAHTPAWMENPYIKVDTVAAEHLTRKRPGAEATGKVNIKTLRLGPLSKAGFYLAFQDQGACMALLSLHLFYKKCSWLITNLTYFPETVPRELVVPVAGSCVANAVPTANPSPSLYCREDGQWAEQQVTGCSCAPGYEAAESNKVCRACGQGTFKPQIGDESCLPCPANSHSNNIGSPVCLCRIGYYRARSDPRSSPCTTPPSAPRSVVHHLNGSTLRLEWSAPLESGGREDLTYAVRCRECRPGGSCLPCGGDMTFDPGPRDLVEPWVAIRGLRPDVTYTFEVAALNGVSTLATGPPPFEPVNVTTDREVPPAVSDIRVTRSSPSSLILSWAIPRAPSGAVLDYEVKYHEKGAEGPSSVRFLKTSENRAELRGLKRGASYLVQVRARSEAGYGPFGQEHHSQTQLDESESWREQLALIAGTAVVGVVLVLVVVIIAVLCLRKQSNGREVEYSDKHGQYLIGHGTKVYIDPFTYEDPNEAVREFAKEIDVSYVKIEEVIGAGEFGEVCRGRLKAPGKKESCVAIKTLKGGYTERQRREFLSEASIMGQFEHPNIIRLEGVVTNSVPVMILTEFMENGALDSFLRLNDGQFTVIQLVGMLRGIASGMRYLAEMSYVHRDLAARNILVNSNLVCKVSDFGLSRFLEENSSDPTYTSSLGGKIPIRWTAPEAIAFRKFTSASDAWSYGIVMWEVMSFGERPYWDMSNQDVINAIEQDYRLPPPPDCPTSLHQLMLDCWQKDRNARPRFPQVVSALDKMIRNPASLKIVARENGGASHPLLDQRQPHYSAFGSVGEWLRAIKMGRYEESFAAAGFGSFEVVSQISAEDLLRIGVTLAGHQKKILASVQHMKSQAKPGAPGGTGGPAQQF
Put plainly: Kinase inhibitor profiling, pEY phosphorylation. It is filed as biochemical. How it is done: as §1, §2, §3

For the next experiment, the target named is T4, Fgfr4 (Mus musculus, UniProt Q03142).
T4 construct: specificity data for proteins generated from a library of eighteen full-length clones; biotin on random lysines (biotin-Lys-tRNA); host or cells: rabbit reticulocyte lysate, coupled transcription/translation (TnT, Promega)
Put plainly: Kinase inhibitor profiling, pEY phosphorylation. It is filed as biochemical. Here is the method: as §1, §2, §3

The target of another experiment is T5, Kdr (Mus musculus, UniProt P35918).
T5 construct: specificity data for proteins generated from a library of eighteen full-length clones; biotin on random lysines (biotin-Lys-tRNA); host or cells: rabbit reticulocyte lysate, coupled transcription/translation (TnT, Promega)
The experiment in a line: Kinase inhibitor profiling, pEY phosphorylation. In kind it is biochemical. How it is done: as §1, §4, §5

The values below come from patent US7063946B2, “Methods, reagents, kits and apparatus for protein function analysis” (Meso Scale Technologies, LLC., priority 2001, dated 2006).

T1 sequence (P05532 25-979): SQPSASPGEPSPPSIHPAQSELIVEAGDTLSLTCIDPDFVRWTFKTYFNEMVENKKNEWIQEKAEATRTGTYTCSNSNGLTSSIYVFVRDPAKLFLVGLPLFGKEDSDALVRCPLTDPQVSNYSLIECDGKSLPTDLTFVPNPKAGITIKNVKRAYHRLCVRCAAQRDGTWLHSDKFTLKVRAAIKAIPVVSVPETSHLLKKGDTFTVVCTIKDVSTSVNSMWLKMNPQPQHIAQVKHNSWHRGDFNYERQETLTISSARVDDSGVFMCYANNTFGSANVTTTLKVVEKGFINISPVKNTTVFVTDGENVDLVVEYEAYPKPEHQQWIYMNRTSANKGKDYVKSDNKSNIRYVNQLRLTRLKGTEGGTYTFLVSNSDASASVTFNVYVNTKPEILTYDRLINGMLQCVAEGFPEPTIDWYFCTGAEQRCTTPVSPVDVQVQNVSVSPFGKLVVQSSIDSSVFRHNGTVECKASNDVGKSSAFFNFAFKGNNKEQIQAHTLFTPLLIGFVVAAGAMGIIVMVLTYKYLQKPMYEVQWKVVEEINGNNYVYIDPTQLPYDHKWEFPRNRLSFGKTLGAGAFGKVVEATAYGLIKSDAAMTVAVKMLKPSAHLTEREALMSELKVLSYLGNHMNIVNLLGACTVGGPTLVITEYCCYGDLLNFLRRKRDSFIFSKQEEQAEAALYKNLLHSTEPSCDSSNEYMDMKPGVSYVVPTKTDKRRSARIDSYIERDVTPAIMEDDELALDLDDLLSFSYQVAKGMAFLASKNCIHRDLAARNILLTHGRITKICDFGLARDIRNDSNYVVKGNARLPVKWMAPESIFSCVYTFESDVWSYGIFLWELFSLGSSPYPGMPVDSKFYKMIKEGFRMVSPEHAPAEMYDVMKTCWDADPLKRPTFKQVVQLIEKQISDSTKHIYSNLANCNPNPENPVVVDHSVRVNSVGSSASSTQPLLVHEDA
T2 sequence (Q06187 whole entry): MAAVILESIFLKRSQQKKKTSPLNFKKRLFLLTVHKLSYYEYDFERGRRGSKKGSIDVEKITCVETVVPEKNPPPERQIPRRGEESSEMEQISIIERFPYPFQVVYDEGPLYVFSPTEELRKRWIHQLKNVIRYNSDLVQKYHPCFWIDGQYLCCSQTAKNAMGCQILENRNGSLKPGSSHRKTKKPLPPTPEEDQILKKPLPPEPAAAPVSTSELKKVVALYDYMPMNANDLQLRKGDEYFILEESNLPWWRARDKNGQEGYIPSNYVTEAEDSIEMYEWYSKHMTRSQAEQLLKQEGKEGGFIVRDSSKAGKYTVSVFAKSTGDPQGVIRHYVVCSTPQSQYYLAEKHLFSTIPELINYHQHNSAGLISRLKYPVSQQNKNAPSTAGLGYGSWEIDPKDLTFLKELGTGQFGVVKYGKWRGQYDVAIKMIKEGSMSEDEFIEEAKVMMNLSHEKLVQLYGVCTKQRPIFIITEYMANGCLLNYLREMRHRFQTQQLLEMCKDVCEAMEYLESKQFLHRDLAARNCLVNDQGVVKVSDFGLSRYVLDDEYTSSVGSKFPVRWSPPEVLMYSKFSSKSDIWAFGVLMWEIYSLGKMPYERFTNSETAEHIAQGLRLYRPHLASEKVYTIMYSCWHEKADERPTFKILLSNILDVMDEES
T5 sequence (P35918 20-1345): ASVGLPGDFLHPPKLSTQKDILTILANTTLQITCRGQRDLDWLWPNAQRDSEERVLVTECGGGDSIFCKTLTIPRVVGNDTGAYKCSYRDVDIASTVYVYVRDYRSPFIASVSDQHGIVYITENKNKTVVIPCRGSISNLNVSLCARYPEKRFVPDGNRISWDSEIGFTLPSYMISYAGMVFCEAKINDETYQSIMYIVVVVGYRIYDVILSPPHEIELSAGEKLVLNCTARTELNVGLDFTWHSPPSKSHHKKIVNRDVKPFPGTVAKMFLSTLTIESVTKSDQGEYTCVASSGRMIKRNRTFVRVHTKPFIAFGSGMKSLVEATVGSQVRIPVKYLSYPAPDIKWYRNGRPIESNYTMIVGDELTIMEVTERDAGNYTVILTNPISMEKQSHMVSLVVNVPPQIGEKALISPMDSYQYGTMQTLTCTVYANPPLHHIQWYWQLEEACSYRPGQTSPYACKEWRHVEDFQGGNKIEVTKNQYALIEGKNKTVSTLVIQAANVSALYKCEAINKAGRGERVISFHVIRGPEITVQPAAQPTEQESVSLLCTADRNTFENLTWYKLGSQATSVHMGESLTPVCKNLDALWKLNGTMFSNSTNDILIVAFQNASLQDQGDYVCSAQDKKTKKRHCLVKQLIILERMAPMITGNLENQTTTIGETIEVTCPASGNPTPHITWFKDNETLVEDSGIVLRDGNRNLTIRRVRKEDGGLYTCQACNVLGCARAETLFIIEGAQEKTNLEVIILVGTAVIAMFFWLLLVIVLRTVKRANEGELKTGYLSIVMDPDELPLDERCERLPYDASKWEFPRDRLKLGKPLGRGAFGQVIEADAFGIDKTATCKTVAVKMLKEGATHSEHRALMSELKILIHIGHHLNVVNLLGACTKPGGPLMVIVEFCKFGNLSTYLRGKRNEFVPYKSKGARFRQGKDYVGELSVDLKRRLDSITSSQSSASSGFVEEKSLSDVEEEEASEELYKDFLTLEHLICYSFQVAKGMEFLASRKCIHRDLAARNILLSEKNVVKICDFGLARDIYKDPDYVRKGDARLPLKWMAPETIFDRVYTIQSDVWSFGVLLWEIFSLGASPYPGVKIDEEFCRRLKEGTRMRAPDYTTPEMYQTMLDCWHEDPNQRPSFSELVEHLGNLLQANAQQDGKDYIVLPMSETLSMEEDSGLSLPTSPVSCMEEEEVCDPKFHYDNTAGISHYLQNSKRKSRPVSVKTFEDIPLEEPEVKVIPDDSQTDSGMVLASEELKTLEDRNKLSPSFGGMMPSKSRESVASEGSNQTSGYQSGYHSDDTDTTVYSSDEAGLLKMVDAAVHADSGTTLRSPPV
T4 sequence (Q03142 17-799): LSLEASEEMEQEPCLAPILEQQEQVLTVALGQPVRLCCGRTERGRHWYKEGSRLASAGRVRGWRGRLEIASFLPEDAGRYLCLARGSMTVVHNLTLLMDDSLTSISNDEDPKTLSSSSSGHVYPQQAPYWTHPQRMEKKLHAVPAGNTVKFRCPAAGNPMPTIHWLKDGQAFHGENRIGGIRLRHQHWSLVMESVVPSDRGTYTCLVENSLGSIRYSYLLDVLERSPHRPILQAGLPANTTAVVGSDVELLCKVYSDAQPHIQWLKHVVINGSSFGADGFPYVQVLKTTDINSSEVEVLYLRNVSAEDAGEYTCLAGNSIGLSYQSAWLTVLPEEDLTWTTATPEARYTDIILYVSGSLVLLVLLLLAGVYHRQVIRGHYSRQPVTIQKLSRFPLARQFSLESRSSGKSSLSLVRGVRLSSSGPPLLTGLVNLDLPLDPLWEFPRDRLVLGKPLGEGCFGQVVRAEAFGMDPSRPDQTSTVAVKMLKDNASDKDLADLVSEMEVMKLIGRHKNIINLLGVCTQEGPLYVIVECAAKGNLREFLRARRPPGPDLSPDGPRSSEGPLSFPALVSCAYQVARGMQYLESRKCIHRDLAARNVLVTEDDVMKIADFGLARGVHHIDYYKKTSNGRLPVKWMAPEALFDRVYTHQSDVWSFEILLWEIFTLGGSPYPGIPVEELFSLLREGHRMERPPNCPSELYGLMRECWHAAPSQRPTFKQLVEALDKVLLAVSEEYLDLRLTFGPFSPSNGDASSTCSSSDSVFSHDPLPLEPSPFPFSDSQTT

With `O=C(O)c1cc(N(Cc2ccccc2O)Cc2cc(O)ccc2O)ccc1O` [Lavendustin A], at Kit, the “Inhibition specificity towards pEY phosphorylation at 10X IC50, Kit” value is on record as “L (low inhibition (“L”=between 50–75% of the activity remaining))”. For the same molecule, the IC50 in experiment [1] is 11 nM.

Consider `N#C/C(=C/c1ccc(O)c(O)c1)C(=O)NCc1ccccc1` [AG-490], for which the “Inhibition specificity towards pEY phosphorylation at 10X IC50, BTK” value at BTK was “L (low inhibition (“L”=between 50–75% of the activity remaining))”. The IC50 in experiment [1] is 100 nM.

Turning to `O=c1c(-c2ccc(O)cc2)coc2cc(O)cc(O)c12` [Genistein], the “Inhibition specificity towards pEY phosphorylation at 10X IC50, EphB4” value at EphB4 is listed as “L (low inhibition (“L”=between 50–75% of the activity remaining))”. Moreover, the “Inhibition specificity towards pEY phosphorylation at 10X IC50, Kit” value at Kit is “M (medium inhibition (“M”=between 25 to 50% of the activity remaining))”.

Regarding `COc1cc2ncc(-c3ccccc3)nc2cc1OC` [AG-1296], the “Inhibition specificity towards pEY phosphorylation at 10X IC50, EphB4” value at EphB4 is on record as “L (low inhibition (“L”=between 50–75% of the activity remaining))”. Besides, the “Inhibition specificity towards pEY phosphorylation at 10X IC50, Kit” value on Kit is “M (medium inhibition (“M”=between 25 to 50% of the activity remaining))”. In addition, the IC50 in experiment [1] is 1000 nM.

As to `C/C(O)=C(\C#N)C(=O)Nc1cc(Br)ccc1Br` [LFM-A13], the “Inhibition specificity towards pEY phosphorylation at 10X IC50, Kit” value at Kit is given as “M (medium inhibition (“M”=between 25 to 50% of the activity remaining))”. Besides, the “Inhibition specificity towards pEY phosphorylation at 10X IC50, Fgfr4” value on Fgfr4 is “M (medium inhibition (“M”=between 25 to 50% of the activity remaining))”. Moreover, the “Inhibition specificity towards pEY phosphorylation at 10X IC50, Kdr” value on Kdr is “L (low inhibition (“L”=between 50–75% of the activity remaining))”. The IC50 in experiment [1] is 17200 nM.

Consider `CC(C)(C)c1cc(C=C(C#N)C#N)cc(C(C)(C)C)c1O` [AG-17], for which, on Kit, the “Inhibition specificity towards pEY phosphorylation at 10X IC50, Kit” value is “L (low inhibition (“L”=between 50–75% of the activity remaining))”. Also, in experiment [1], the IC50 was 500 nM.

As for `CC(C)(C)c1cc(/C=C(\C#N)C(N)=S)cc(C(C)(C)C)c1O` [AG879], the “Inhibition specificity towards pEY phosphorylation at 10X IC50, BTK” value at BTK is reported as “L (low inhibition (“L”=between 50–75% of the activity remaining))”. For the same molecule, in experiment [1], the IC50 was 10000 nM.
